Molecules are shown by their SMILES. Structures can show the parent of a compound that is named as a salt.

The results in this text go back to patent publication US5556853A, “Epoxysuccinic acid derivatives” (Takeda Chemical Industries, Ltd., priority 1993, dated 1996).

Data set [1] deals with mice. Briefly: Toxicity Study. Format: in vivo. To be noted: intraperitoneally or orally administered at 400 mg/kg. As for the experimental part:
TAN-1756A caused no death in mice when it was intraperitoneally or orally administered at 400 mg/kg.
TAN-1803 monohydrochloride caused no death in mice when it was intraperitoneally or orally administered at 400 mg/kg.

Data set [2] has as its system bone resorption as enhanced by PTH (parathyroid hormone) in femurs from female BALB/c mice. Briefly: Determination of Bone Resorption Suppressive Activity (PTH-enhanced, calcium release from cultured femurs). Format: cell-based. To be noted: 168 h; test compound 10 μg/ml, PTH 1 μM, 7 days, mouse femurs. As to the method:
Compounds (I), (XI) and (XXI) or salts thereof excellently suppress bone resorption. Their suppressive action against bone resorption as enhanced by PTH (parathyroid hormone) was determined by the method described below.
Femurs were aseptically isolated from female BALB/c mice at 8-10 weeks of age. After the bone marrow cavity was washed with a Ham F12 medium containing 10% (w/w) thermally inactivated fetal calf serum, 100 unit/ml penicillin G and 100 unit/ml streptomycin (hereinafter referred to as culture broth), each femur was added to 1 ml of the culture broth and precultured for 3 hours at 37° C. in the presence of 5% carbon dioxide and 95% air. Each bone was transferred to 1 ml of the culture broth supplemented with PTH (produced by Peptide Institute, Inc., final concentration 1 μM) and the test compound (final concentration 10 μg/ml) and cultured for 7 more days, after which the total calcium content in the culture broth was determined using Calcium E-Test Wako (produced by Wako Pure Chemical Industries). The bone resorption suppressive activity of the test compound was calculated using the following equation:
Bone resorption suppressive activity (%)=100×(Cp-Cs)/(Cp-Cc)
Cc: Total calcium content in the culture broth containing neither PTH nor test compound
Cp: Total calcium content in the culture broth containing PTH […]

The target of data set [3] is T1, cathepsin B (Homo sapiens, UniProt P07858).
T1 construct: purchased Sigma
Briefly: Determination of Cathepsin B Inhibitory Activity. Format: biochemical. To be noted: cathepsin B (Sigma), Z-Phe-Arg-7MCA substrate, pH 5.5, 37° C., 20 minutes; read-out: Inhibitory activity potency IC50 Cathepsin B (converted). As to the method: To 75 μl of a reaction mixture containing 30 ng of cathepsin B (produced by Sigma), 2 μM DTT, 1 mM ethylenediaminetetraacetate disodium salt, 0.1M sodium acetate buffer (pH 5.5) and various concentrations of sample, 25 μl of 20 μM Z-Phe-Arg-7MCA was added to initiate the reaction. After reaction mixture incubation at 37° C. for 20 minutes, 100 μl of a reaction stopper solution containing 100 mM sodium monochloroacetate was added. The amount of liberated 4-methyl-7-aminocoumarin was determined at an excitation wavelength of 365 nm and a fluorescence wavelength of 450 nm, using a fluorophotometer. The sample concentration required to cause 50% inhibition was expressed as the IC50 value, with the fluorescence value obtained from the same reaction in the absence of the sample taken as 100%.

Data set [4] concerns the target T2, human recombinant cathepsin L (Homo sapiens, UniProt P07711).
T2 construct: made in house; host or cells: mouse myeloma Sp2/0 cells transformed with pTBN-HCLneo (Sp-HCL26), secreted into the culture supernatant
Briefly: Determination of Cathepsin L Inhibitory Activity. Format: biochemical. Conditions: Z-Phe-Arg-7MCA substrate, pH 5.5, 37° C., 20 minutes, read-out: Inhibitory activity potency IC50 Cathepsin L (converted). As for the experimental part: To 75 μl of a reaction mixture containing 1 ng of human recombinant cathepsin L (as produced in Reference Examples 1 through 7 below), 2 μM dithiothreitol (hereinafter referred to as DTT), 1 mM ethylenediaminetetraacetate disodium salt, 0.1M sodium acetate buffer (pH 5.5) and various concentrations of sample, 25 μl of 20 μM benzyloxycarbonyl-L-phenylalanyl-L-arginine-4-methylcoumaryl-7-amide (hereinafter referred to as Z-Phe-Arg-7MCA, produced by Peptide Institute, Inc.) was added to initiate the reaction. After incubation at 37° C. for 20 minutes, 100 μl of a reaction stopper solution containing 100 mM sodium monochloroacetate was added. The amount of liberated 4-methyl-7-aminocoumarin was determined at an excitation wavelength of 365 nm and a fluorescence wavelength of 450 nm, using a fluorophotometer (FCA; produced by Baxter). The sample concentration required to cause 50% inhibition was expressed as the IC50 value, with the fluorescence value obtained from the same reaction in the absence of the sample taken as 100%.

T2 sequence (P07711 114-333): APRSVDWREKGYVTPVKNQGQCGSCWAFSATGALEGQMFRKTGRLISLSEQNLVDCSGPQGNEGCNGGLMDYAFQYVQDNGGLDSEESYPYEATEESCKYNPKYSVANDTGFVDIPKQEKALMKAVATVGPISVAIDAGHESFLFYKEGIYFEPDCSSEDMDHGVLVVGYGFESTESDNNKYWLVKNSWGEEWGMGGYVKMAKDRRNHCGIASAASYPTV

As for `NCCCCNC(=O)[C@H](Cc1ccccc1)NC(=O)[C@H]1O[C@@H]1C(=O)O` [Compound 1, N-{N-[(2S,3S)-3-trans-carboxyoxirane-2-carbonyl]-L-phenylalanyl}-1,4-diaminobutane], the death in mice result in data set [1] is recorded as “no death”. Also, the activity at 10 µg/mL in data set [2] is 150%.

`NCCCCCCCCNC(=O)[C@H](Cc1ccccc1)NC(=O)[C@H]1O[C@@H]1C(=O)O` [Compound 23, N-(N-[(2S,3S)-3-trans-carboxyoxirane-2-carbonyl]-L-phenylalanyl}-1,8-diaminooctane]: the results for the IC50 in data set [3] and in data set [4] were 59.2 nM and 4.93 nM, respectively.

With `CC(C)C[C@H](NC(=O)[C@H]1O[C@@H]1C(=O)O)C(=O)N(CCCN)CCCCN` [Compound 92, N-{N-[(2S,3S)-3-trans-carboxyoxirane-2-carbonyl]-L-leucyl}-N-(3-aminopropyl)-1,4-diaminobutane], the death in mice entry in data set [1] is given as “no death”. Further, the activity at 10 µg/mL in data set [2] is 149%.

Regarding `O=C(O)[C@H]1O[C@@H]1C(=O)N[C@@H](Cc1ccc2ccccc2c1)C(=O)N1CCOCC1` [Compound 82, N-{N-[(2S,3S)-3-trans-carboxyoxirane-2-carbonyl]-3-(2-naphthyl)-L-alanyl}morpholine monosodium salt], the results for the IC50 in data set [3] and in data set [4] were 85.3 nM and 5.02 nM, respectively.

On to `O=C(NCCCCNC(=O)[C@H](Cc1ccccc1F)NC(=O)[C@H]1O[C@@H]1C(=O)O)OCc1ccccc1` [Compound 37], for which the IC50 was 27.9 nM in data set [3] and 1.99 nM in data set [4].

One may read the IC50 as the concentration needed to halve the response being measured.
